Columns and labels:
[1] = test system: EGFR-Del19/T790M/C797S; experiment: EGFR degradation HTRF assay in H1975-clone #28 cells; format: cell-based; settings: H1975-clone #28 (Del19/T790M/C797S) cells, 16 h treatment; for DC50: IC50 (DC50), read-out: DC50(nM) H1975 # 28 DTC; for Dmax (%) H1975 # 28 DTC: maximum percentage of inhibition (degradation)
Experimental: (§1) H1975-clone #28(Del19/T790M/C797S) and H1975-clone #25(L858R/T790M/C797S). EGFR-Del19/T790M/C797S and EGFR-L858R/T790M/C797S were stably expressed in H1975 cell lines by lentivirus-mediated over-expression, respectively. The EGFR over-expressed cells then underwent knockout, in which the EGFR targeting sgRNA was designed to only target the endogenous EGFR copies and preserve the exogenous EGFR copies. Followed by knockout, the edited H1975 cells were seeded in 96 well plates at the concentration of […], cultured for about 2 weeks to allow single clones formation. The formed clones were screened by DNA sequencing and whole exon sequencing analysis for the desired edition.
(§2) H1975-clone #28, and H1975-clone #25 were finally confirmed as homozygous Del19/T790M/C797S EGFR, and L858R/T790M/C797S EGFR clones, respectively.
(§3) H1975-#25 and H1975-#28 cells are treated with compounds diluted in 0.2% DMSO cell culture medium on day 2, incubate for 16 h, 37° C., 5% CO2. the final concentration of compounds in all assay is start with 10 uM, 5-fold dilution, total 8 doses were included.
(§4) After 16 h treatment, add HTRF lysis buffer to each well; seal the plate and incubate 1 hour at room temperature on a plate shaker; Once the cells are lysed, 16 μL of cell lysate are transferred to a PE 384-well HTRF detection plate; 4 μL of pre-mixed HTRF antibodies are added to each well; Cover the plate with a plate sealer, spin 1000 rpm for 1 min, Incubate overnight at room temperature; Read on BMG PheraStar with HTRF protocol (337 nm-665 nm-620 nm).
(§5) The inhibition (degradation) percentage of the compound was calculated by the following equation:
(§6) Inhibition percentage of Compound=100−100×(Signal−low control)/(High control−low control),
(§7) The IC50 (DC50) value of a compound can be obtained by fitting the following equation
(§8) Wherein, X and Y are known values, and IC50, Hillslope, Top and Bottom are the parameters obtained by fitting with software. Y is the inhibition percentage (calculated from the equation), X is the concentration of the compound; IC50 is the concentration of the compound when the 50% inhibition is reached. The smaller the IC50 value is, the stronger the inhibitory ability of the compound is. Vice versa, the higher the IC50 value is, the weaker the ability the inhibitory ability of the compound is; Hillslope represents the slope of the fitted curve, generally around 1 *; Bottom represents the minimum value of the curve obtained by data fitting, which is generally 0%±20%; Top represents the maximum value of the curve obtained by data fitting, which is generally 100%±20%. The experimental data were fitted by calculating and analyzing with Dotmatics data analysis software.

[2] = biological target: T1, EGFR-L858R/T790M/C797S (Homo sapiens, UniProt P00533, C797S/L858R/T790M); experiment: EGFR degradation HTRF assay in H1975-clone #25 cells; format: cell-based; settings: 16 h treatment; for DC50: H1975-clone #25 (L858R/T790M/C797S) cells, IC50 (DC50), read-out: DC50(nM) H1975 # 25-LTC; for Dmax: NCI-H1975, H1975-clone #25 (L858R/T790M/C797S) cells, maximum percentage of inhibition (degradation), read-out: Dmax (%) H1975 # 25-LTC
T1 construct: expressed in transfected cells; host or cells: H1975-clone #25 (lentiviral over-expression, endogenous EGFR knocked out)
T1 sequence (P00533 25-1210 T790M/C797S/L858R): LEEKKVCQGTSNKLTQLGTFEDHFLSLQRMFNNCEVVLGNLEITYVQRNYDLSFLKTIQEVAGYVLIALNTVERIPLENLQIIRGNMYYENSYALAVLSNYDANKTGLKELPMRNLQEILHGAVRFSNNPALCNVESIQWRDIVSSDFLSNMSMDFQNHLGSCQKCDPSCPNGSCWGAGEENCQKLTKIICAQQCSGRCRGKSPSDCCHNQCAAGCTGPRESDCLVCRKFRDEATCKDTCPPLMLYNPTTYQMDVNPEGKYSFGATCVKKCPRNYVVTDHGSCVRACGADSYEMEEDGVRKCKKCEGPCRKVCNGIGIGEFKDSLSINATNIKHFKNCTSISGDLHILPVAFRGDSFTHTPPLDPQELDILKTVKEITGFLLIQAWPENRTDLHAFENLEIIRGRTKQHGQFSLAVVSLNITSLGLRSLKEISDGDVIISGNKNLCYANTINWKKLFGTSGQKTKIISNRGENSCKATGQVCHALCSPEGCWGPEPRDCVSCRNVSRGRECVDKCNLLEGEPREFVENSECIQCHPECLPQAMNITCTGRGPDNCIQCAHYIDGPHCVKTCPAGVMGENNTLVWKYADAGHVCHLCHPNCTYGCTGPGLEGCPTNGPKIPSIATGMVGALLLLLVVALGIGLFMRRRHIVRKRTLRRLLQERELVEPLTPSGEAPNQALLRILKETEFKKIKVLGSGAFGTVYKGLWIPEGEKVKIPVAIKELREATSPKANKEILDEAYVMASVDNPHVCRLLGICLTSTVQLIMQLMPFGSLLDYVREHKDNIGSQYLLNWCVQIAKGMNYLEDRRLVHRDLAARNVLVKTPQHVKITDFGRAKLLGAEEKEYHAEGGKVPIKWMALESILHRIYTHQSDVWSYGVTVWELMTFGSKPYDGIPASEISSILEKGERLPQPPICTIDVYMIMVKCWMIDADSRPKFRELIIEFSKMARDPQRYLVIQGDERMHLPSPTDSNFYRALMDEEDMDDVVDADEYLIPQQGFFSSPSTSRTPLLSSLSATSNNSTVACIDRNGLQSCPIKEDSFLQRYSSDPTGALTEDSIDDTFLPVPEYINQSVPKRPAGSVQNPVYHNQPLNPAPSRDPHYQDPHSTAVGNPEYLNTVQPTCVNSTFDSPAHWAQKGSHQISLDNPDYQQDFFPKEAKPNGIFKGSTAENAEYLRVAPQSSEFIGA
Experimental: as §1, §2, §3, §4, §5, §6, §7, §8

Structure (SMILES) | DC50 [1] [nM] | Dmax (%) H1975 # 28 DTC [1] [%] | DC50 [2] [nM] | Dmax [2] [%]
CCc1ncc2c(P(C)(C)=O)c(Nc3nc(Nc4cc(CC)c(N5CCC(N6CCC7(CCN(c8cc(F)c([C@H]9CCC(=O)NC9=O)c(F)c8)CC7)CC6)CC5)cc4OC)ncc3Br)ccc2n1 (single isomer, unassigned) [Example 4] | 1.5 | 87 | 2.5 | 84
CCc1cc(Nc2ncc(Br)c(Nc3ccc4nc(C)c(F)cc4c3P(C)(C)=O)n2)c(OC)cc1N1CCC2(CC1)CCN(C1CC(c3cc(F)c([C@H]4CCC(=O)NC4=O)c(F)c3)C1)CC2 (single isomer, unassigned) [Example 5] | 3.1 | 90 | 3.7 | 92
CCc1ncc2c(P(C)(C)=O)c(Nc3nc(Nc4cc(CC)c(N5CCC(N6CCN(C7CN(c8cc(F)c([C@H]9CCC(=O)NC9=O)c(F)c8)C7)CC6)CC5)cc4OC)ncc3Br)ccc2n1 (single isomer, unassigned) [Example 7] | 2.7 | 86 | 2.9 | 76
CCc1ncc2c(P(C)(C)=O)c(Nc3nc(Nc4cc(CC)c(N5CCC(N6CCN([C@H]7CCN(c8cc(F)c([C@H]9CCC(=O)NC9=O)c(F)c8)C7)CC6)CC5)cc4OC)ncc3Br)ccc2n1 (single isomer, unassigned) [Example 9] | 1.3 | 86 | 3.8 | 86
CCc1ccc2c(P(C)(C)=O)c(Nc3nc(Nc4cc(CC)c(N5CCC(N6CCN(C7CCN(c8cc(F)c([C@H]9CCC(=O)NC9=O)c(F)c8)CC7)CC6)CC5)cc4OC)ncc3Br)ccc2n1 (single isomer, unassigned) [Example 10] | 2.7 | 88 | 4.9 | 91
CCc1ccc2c(P(C)(C)=O)c(Nc3nc(Nc4cc(CC)c(N5CCC(N6CCC(N7CCN(c8cc(F)c([C@H]9CCC(=O)NC9=O)c(F)c8)CC7)CC6)CC5)cc4OC)ncc3Br)ccc2n1 (single isomer, unassigned) [Example 11] | 1.8 | 88 | 0.9 | 94
CCc1cc(Nc2ncc(Br)c(Nc3ccc4nc(C)c(F)cc4c3P(C)(C)=O)n2)c(OC)cc1N1CCC(N2CC(N3CCN(c4cc(F)c([C@H]5CCC(=O)NC5=O)c(F)c4)CC3)C2)CC1 (single isomer, unassigned) [Example 16] | 2.8 | 88 | 1.1 | 85
CCc1cc(Nc2ncc(Br)c(Nc3ccc4nc(C)c(F)cc4c3P(C)(C)=O)n2)c(OC)cc1N1CCC(N2CC3(CCN(c4cc(F)c([C@H]5CCC(=O)NC5=O)c(F)c4)CC3)C2)CC1 (single isomer, unassigned) [Example 18] | 1.7 | 91 | 1.7 | 92
CCOc1cc(N2CCC(N3CCC4(CC3)CN(c3cc(F)c([C@H]5CCC(=O)NC5=O)c(F)c3)C4)CC2)c(CC)cc1Nc1ncc(Br)c(Nc2ccc3nc(CC)ncc3c2P(C)(C)=O)n1 (single isomer, unassigned) [Example 19] | 1.1 | 91 | 1.9 | 93
CCc1ncc2c(P(C)(C)=O)c(Nc3nc(Nc4cc(CC)c(N5CCC(N6CC7(CCN(c8cc(F)c([C@H]9CCC(=O)NC9=O)c(F)c8)CC7)C6)CC5)cc4OC)ncc3Br)ccc2n1 (single isomer, unassigned) [Example 20] | 2.9 | 90 | 1.4 | 92
CCc1ccc2c(P(C)(C)=O)c(Nc3nc(Nc4cc(CC)c(N5CCC(N6CC7(CN(c8cc(F)c([C@H]9CCC(=O)NC9=O)c(F)c8)C7)C6)CC5)cc4OC)ncc3Br)ccc2n1 (single isomer, unassigned) [Example 27] | 1.3 | 91 | 2.4 | 92
CCc1cc(Nc2ncc(Br)c(Nc3ccc4nc(C)c(F)cc4c3P(C)(C)=O)n2)c(OC)cc1N1CCC2(CCN(C(=O)CN3CCC(c4ccc(NC5CCC(=O)NC5=O)cc4)CC3)CC2)CC1 (single isomer, unassigned) [Example 29, 3-((4-(1-(2-(9-(4-((5-bromo-4-((5-(dimethylphosphoryl)-3-fluoro-2-methylquinolin-6-yl)amino)pyrimidin-2-yl)amino)-2-ethyl-5-methoxyphenyl)-3,9-diazaspiro[5.5]undecan-3-yl)-2-oxoethyl)piperidin-4-yl)phenyl)amino)piperidine-2,6-dione] | 3.1 | 88 | 3.8 | 96
CCc1ccc2c(P(C)(C)=O)c(Nc3nc(Nc4cc(CC)c(N5CCC(N6CCC(N7CC(c8cc(F)c([C@H]9CCC(=O)NC9=O)c(F)c8)C7)CC6)CC5)cc4OC)ncc3Br)ccc2n1 (single isomer, unassigned) [Example 30] | 13.3 | 87 | 10.8 | 89
CCc1cc(Nc2ncc(Br)c(Nc3ccc4nc(C)c(F)cc4c3P(C)(C)=O)n2)c(OC)cc1N1CCC2(CCN(CCNc3cc(F)c([C@H]4CCC(=O)NC4=O)c(F)c3)CC2)CC1 (single isomer, unassigned) [Example 43] | 3.7 | 87 | 4.6 | 90
CCc1cc(Nc2ncc(Br)c(Nc3ccc4nc(C)c(F)cc4c3P(C)(C)=O)n2)c(OC)cc1N1CCC2(CC1)CCN(C1CCN(c3cc(F)c([C@H]4CCC(=O)NC4=O)c(F)c3)CC1)CC2 [Example 1, (R)-3-(4-(4-(9-(4-((5-bromo-4-((5-(dimethylphosphoryl)-3-fluoro-2-methylquinolin-6-yl)amino)pyrimidin-2-yl)amino)-2-ethyl-5-methoxyphenyl)-3,9-diazaspiro[5.5]undecan-3-yl)piperidin-1-yl)-2,6-difluorophenyl)piperidine-2,6-dione] | 2.2 | 89 | 3.4 | 92
CCc1cc(Nc2ncc(Cl)c(Nc3ccc4nc(C)c(F)cc4c3P(C)(C)=O)n2)c(OC)cc1N1CCC2(CC1)CCN(C1CCN(c3cc(F)c([C@H]4CCC(=O)NC4=O)c(F)c3)CC1)CC2 [Example 2, (R)-3-(4-(4-(9-(4-((5-chloro-4-((5-(dimethylphosphoryl)-3-fluoro-2-methylquinolin-6-yl)amino)pyrimidin-2-yl)amino)-2-ethyl-5-methoxyphenyl)-3,9-diazaspiro[5.5]undecan-3-yl)piperidin-1-yl)-2,6-difluorophenyl)piperidine-2,6-dione] | 3.5 | 89 | 3.4 | 92
CCc1ncc2c(P(C)(C)=O)c(Nc3nc(Nc4cc(CC)c(N5CCC6(CC5)CCN(C5CCN(c7cc(F)c([C@H]8CCC(=O)NC8=O)c(F)c7)CC5)CC6)cc4OC)ncc3Br)ccc2n1 [Example 3, (R)-3-(4-(4-(9-(4-((5-bromo-4-((5-(dimethylphosphoryl)-2-ethylquinazolin-6-yl)amino)pyrimidin-2-yl)amino)-2-ethyl-5-methoxyphenyl)-3,9-diazaspiro[5.5]undecan-3-yl)piperidin-1-yl)-2,6-difluorophenyl)piperidine-2,6-dione] | 1.9 | 91 | 2.8 | 95
